In patent publication US20130273649A1, “Culture medium for pluripotent stem cells” (UNIVERSITY OF SOUTHERN CALIFORNIA, priority 2012, published 2013):

Tests used:
Assay type in all cases: cell-based
[1] = system: β-catenin/TCF-responsive TOPFlash reporter; assay: TOPFlash reporter assay in mouse EpiSCs; conditions: CD1 mouse EpiSCs, 12 hours
Procedure: (A) TOPFlash™ assay in CD1 mouse EpiSCs treated with the indicated inhibitors for 12 hours. Data represent mean±s.d. of three biological replicates. (B) Representative phase contrast images of CD1 mouse EpiSCs cultured in the indicated conditions for 7 days. (C) Western blot analysis of CD1 mouse EpiSCs treated with the indicated inhibitors for 12 h. (D) qRT-PCR analysis of Axin1 and Axin2 mRNA levels in CD1 mouse EpiSCs stably transfected with Axin1 shRNA or Axin2 shRNA. Data represent mean±s.d. of three biological replicates. (E) Colony assay on CD1 mouse EpiSCs stably transfected with scramble, Axin1, or Axin2 shRNAs. Cells were plated onto a 6-well plate at a density of 5,000 cells/well and cultured in CHIR/IWR-1. Colonies were counted 7 days after plating. Data represent the total combined numbers of colonies from two independent experiments in which each shRNA-transfected group was cultured in one well of a 6-well plate. (F) Representative phase contrast images of CD 1 mouse EpiSCs stably transfected with the indicated shRNAs and cultured in CHIR/IWR-1 for 7 days. (G) Western blot analysis of CD1 mouse EpiSCs overexpressing Flag-tagged Axin1 or Axin2. (H) Representative phase contrast images of CD1 mouse EpiSCs overexpressing Axin1 or Axin2 and cultured in CHIR for 7 days. Axin2-overexpressing EpiSCs could be continually passaged in CHIR alone. Scale bars, 50 μm (B, F and H)
Next, we investigated the mechanism by which CHIR/XAV promotes EpiSC self-renewal. By inhibiting GSK3 phosphorylation of β-catenin, CHIR stabilizes β-catenin, which then trans-locates to the nucleus and forms complexes with DNA-binding proteins, including TCFs, to activate transcription (Logan and Nusse, 2004). […]
For quantifying relative Oct3/4 enhancer activities, pGL3-Oct4 DE and pGL3-Oct4 PE plasmids (gifts from Hans Schöler's lab) were co-transfected with the Renilla vector, using the Amaxa™ Transfection Kit (Lonza). […] For quantifying relative β-catenin/Tcf transcriptional activity, pGL2-SuperTOP™ plasmid (gift from Randall Moon) was co-transfected with the Renilla vector and assayed accordingly.

mouse EpiSCs = assay: Mouse EpiSC self-renewal culture; conditions: for EpiSC self-renewal / maintenance of undifferentiated state: CD1 mouse EpiSCs, GMEM/10% FBS, no FGF2/activin unless named, CHIR 3 μM, PD0325901 1 μM, XAV939 2 μM, IWR-1 2.5 μM, IWP-2 2.5 μM, Pyrvinium 100 nM
Source text: We therefore reasoned that if CHIR induces EpiSC differentiation through stabilization of β-catenin, de-stabilization of β-catenin might promote EpiSC self-renewal. We tested this hypothesis by administering the tankyrase inhibitor XAV939 to mouse EpiSC cultures. XAV939-mediated inhibition of tankyrase stabilizes Axin, leading to the formation of the β-catenin destruction complex, composed of GSK3, Axin and adenomatous polyposis coli (APC) (Huang et al., 2009). […] EpiSCs cultured in CHIR/XAV could be routinely passaged by single-cell dissociation and replating onto gelatin-coated dishes, and could be cryo-preserved and recovered at high efficiency by standard techniques.
final concentrations: CHIR99021 (3 μM), PD0325901 (1 μM), XAV939 (Sigma, 2 μM), IWR-1 (Sigma, 2.5 μM), IWP-2 (Stemgent, 2.5 μM), Pyrvinium (Sigma, 100 nM), recombinant human FGF2 (PeproTech, 10 ng/ml), and recombinant human activin A (PeproTech, 10 ng/ml). CHIR99021 and PD0325901 were synthesized in the Division of Signal Transduction Therapy, University of Dundee, UK.
The basal medium for mouse EpiSC culture is the conventional mouse ESC medium, which consists of GMEM (Sigma) supplemented with 10% fetal bovine serum (FBS) (Hyclone), 2 mM L-glutamine (Invitrogen), 1 mM sodium pyruvate (Invitrogen), 1% nonessential amino acids (Invitrogen), and 0.1 mM (3-mercaptoethanol. Mouse EpiSCs were derived and maintained in the basal medium supplemented with FGF2/activin, CHIR/XAV, or CHIR/IWR-1. The basal medium for rat EpiSC culture is N2B27 (Tong et al., 2011), which was prepared by mixing 500 ml of DMEM/F12 (Invitrogen) with 500 ml of Neurobasal™ medium (Invitrogen), and adding 5 ml of N2 (Invitrogen), 10 ml of B27 (Invitrogen), 5 ml of Glutamax™ (Invitrogen), and 1 ml of 0.1 M β-mercaptoethanol (Sigma). The basal medium for human ESC culture consists of Knockout™ DMEM/F12 supplemented with 20% KSR (Invitrogen), 1% nonessential amino acids, 2 mM L-glutamine, and 0.1 mM (3-mercaptoethanol. Human ESCs were cultured in the basal medium supplemented with FGF2, CHIR/XAV, or CHIR/IWR-1.
Post-implantation epiblasts were isolated from mouse or rat embryos and dissociated into small clumps as previously described (Chenoweth and Tesar, 2010). Epiblast fragments were placed into 4-well plates pre-coated with 0.1% gelatin (for mouse epiblasts) or pre-seeded with γ-irradiated mouse embryonic fibroblasts (MEFs) (for rat epiblasts) and cultured in either the FGF2/activin or the CHIR/XAV conditions. Emerging EpiSCs were trypsinized and expanded every 2-3 days at a subculture ratio of 1:4. Animal experiments were performed according to the investigator's protocols approved by the University of Southern California Institutional Animal Care and Use Committee.

Axin2 = assay: Western blot of Axin2 in mouse EpiSCs; conditions: CD1 mouse EpiSCs treated 12 h

SMILES	TOPFlash reporter activity [1]	self-renewal of β-catenin−/− EpiSCs overexpressing Axin2 (mouse EpiSCs; 3 μM CHIR after removal of FGF2/activin)	self-renewal of Axin1-overexpressing EpiSCs (mouse EpiSCs; Axin1-EpiSCs, CHIR after removal of FGF2/activin)	self-renewal of Axin2-overexpressing EpiSCs (mouse EpiSCs; Axin2-EpiSCs, CHIR alone after removal of FGF2/activin)	EpiSC self-renewal / maintenance of undifferentiated state (mouse EpiSCs)	amount of Axin2 protein (Axin2)	effect on TOPFlash activity induced by CHIR ([1]; added to CHIR)	time EpiSCs remained undifferentiated (mouse EpiSCs; XAV939 alone, before passaging)
Cc1c[nH]c(-c2cnc(NCCNc3ccc(C#N)cn3)nc2-c2ccc(Cl)cc2Cl)n1 [CHIR99021, 6-((2-((4-(2,4-Dichlorophenyl)-5-(4-methyl-1H-imidazol-2-yl)pyrimidin-2-yl)amino)ethyl)amino)nicotinonitrile]	strongly induced	differentiated after the removal of FGF2/activin, even in the presence of CHIR	rapidly differentiated	sufficient to support robust and long-term expansion of undifferentiated Axin2-EpiSCs	rapidly differentiated or died	elevated	–	–
Oc1nc(-c2ccc(C(F)(F)F)cc2)nc2c1CSCC2 [XAV939, 3,5,7,8-Tetrahydro-2-[4-(trifluoromethyl)phenyl]-4H-thiopyrano[4,3-d]pyrimidin-4-one]	–	–	–	–	differentiated after passaging	significantly increased	abolished the TOPFlash activity induced by CHIR	approximately 1 week
